Data taken from EP4582413A1, “ARYLTETRAHYDROPYRIDINE COMPOUND AND PEST CONTROL AGENT” (priority 2022, dated 2024).

Key:
Type in all cases: in vivo
[1] = test system: Trichostrongylus axei; assay: Effect test for Trichostrongylus axei; design: concentration or dose not given beside the values; conditions: test chemical solution B added to eggs in 96-well plate, unhatched eggs and inactive larvae counted 4 days after addition, 25°C, relative to untreated plot
Experimental: Agar medium with 1% potato dextrose was aliquoted into 60-µl portions in a 96-well plate, and 30 µl of sterilized water containing Trichostrongylus axei eggs and a freeze-dried Escherichia coli OP50 strain (five eggs, 10 µg/10 µl Escherichia coli) was added to each well. From above, 10 µl of test chemical solution B of the presently invented compound was added to each well, and the plate was left to stand under dark conditions at 25°C.

[2] = test system: brown rice planthoppers (Nilaparvata lugens); assay: Insecticidal test for brown rice planthoppers; conditions: Nilaparvata lugens, 144 h; 500 ppm chemical solution, rice leaf sheaths soaked, third-instar larvae, six days, 25°C; read-out: death rate
Experimental: A 10% by mass emulsion of the presently invented compound prepared according to the above formulation example for an emulsion was diluted with water containing a spreader to prepare a chemical solution having a concentration of 500 ppm. Rice leaf sheaths were soaked in the chemical solution for approximately 10 seconds. After the completion of the soaking operation, the rice leaf sheaths treated with the chemical solution were air-dried, and then put in test tubes. Into each test tube, five third-instar brown rice planthoppers (Nilaparvata lugens) larvae were released, and the test tubes were capped with sponge and accommodated in a thermostatic room at 25°C. Six days after the accommodation, the number of dead brown rice planthoppers individuals in the test tubes were examined, and the death rate was calculated from a calculation formula shown below. The test was carried out in duplicate. [formula]

[3] = test system: western flower thrips (Frankliniella occidentalis); assay: Insecticidal activity against western flower thrips; conditions: Frankliniella occidentalis, 48 h; 500 ppm chemical solution sprinkled (2.5 mg/cm^2), larvae on common bean leaf, after 2 days; read-out: death rate
Experimental: Wet filter paper was laid on each styrol cup having an inner diameter of 7 cm, and a common bean leaf cut into a 3 cm square was placed thereon, and inoculated with 20 western flower thrips (Frankliniella occidentalis) larvae. A 10% by mass emulsion of the presently invented compound prepared according to the above formulation example for an emulsion was diluted with water containing a spreader to prepare a chemical solution having a concentration of 500 ppm. For each styrol cup, 2.5 ml of the chemical solution prepared was sprinkled (2.5 mg/cm^2) with a rotary tower sprinkler. […] The test was carried out in duplicate.

[4] = test system: diamondback moths (Plutella xylostella); assay: Insecticidal test for diamondback moths; conditions: Plutella xylostella, 144 h; 500 ppm chemical solution, leaves soaked, third-instar larvae, six days, 25°C; read-out: death rate
Experimental: A 10% by mass emulsion of the presently invented compound prepared according to the above formulation example for an emulsion was diluted with water containing a spreader to prepare a chemical solution having a concentration of 500 ppm. Chinese olive leaves were soaked in the chemical solution for approximately 10 seconds. After the completion of the soaking operation, the Chinese olive leaves treated with the chemical solution were air-dried, and then put in dishes. Into each dish, five third-instar diamondback moths (Plutella xylostella) larvae were released, and the dishes were capped and accommodated in a thermostatic room at 25°C. […] The test was carried out in duplicate.

[5] = test system: cat fleas (Ctenocephalides felis); assay: whole plant or invertebrate; conditions: 72 h, read-out: death rate
Experimental: In 1 ml of acetone, 1 mg of the presently invented compound was dissolved to prepare a chemical solution having a concentration of 1000 ppm. The bottom surface and side surface of each glass container having an inner wall surface area of 25 cm^2 were coated with 250 µl of the chemical solution, and acetone was then volatilized to form a thin film of the compound on the inner wall of the glass container.
Into each of the treated glass containers, five cat fleas (Ctenocephalides felis) imagoes (mixed-sex) were released, and the glass containers were capped and accommodated in a thermostatic room at 25°C. Three days after the release, the number of dead flea individuals were examined, and the death rate was calculated from the same calculation formula as in Test Example 1.

SMILES | efficacy (%) [1] [%] | mortality at 500 µg/mL [2] [%] | mortality at 500 µg/mL [3] [%] | mortality at 500 µg/mL [4] [%] | mortality at 10 µg/cm2 [5] [%]
O=C(Nc1ccc(SC(F)(F)F)cc1)C1=C(O)CC(c2cnc(Cl)c(-c3ccc(F)nc3)c2)NC1=O (stereo not shown) [2-038] | ≥ 50 | – | – | – | –
O=C(Nc1ccc(C(F)(F)F)cn1)C1=C(O)CC(c2cnc(Cl)c(-c3cncc(F)c3)c2)NC1=O (stereo not shown) [2-056] | ≥ 50 | – | – | – | –
N#Cc1ccc(NC(=O)C2=C(O)CC(c3cnc(Cl)c(-c4ccc(F)nc4)c3)NC2=O)nc1 (stereo not shown) [2-088] | ≥ 50 | – | – | – | –
O=C(Nc1ncc(F)cc1Cl)C1=C(O)CC(c2cnc(Cl)c(-c3ccc(F)nc3)c2)NC1=O (stereo not shown) [2-103] | ≥ 50 | – | – | – | –
O=C(Nc1ccc(F)cn1)C1=C(O)CC(c2cnc(Cl)c(-c3ccnc(F)c3)c2)NC1=O (stereo not shown) [2-115] | ≥ 50 | – | – | – | –
Cc1cnc(NC(=O)C2=C(O)CC(c3cnc(Cl)c(-c4ccc(F)nc4)c3)NC2=O)nc1 (stereo not shown) [2-120] | ≥ 50 | – | – | – | –
O=C(Nc1cnc(Cl)c(Cl)c1)C1=C(O)CC(c2cnc(Cl)c(-c3ccc(F)nc3)c2)NC1=O (stereo not shown) [2-126] | ≥ 50 | – | – | – | –
O=C(Nc1ccc(Cl)nc1Cl)C1=C(O)CC(c2cnc(Cl)c(-c3ccc(F)nc3)c2)NC1=O (stereo not shown) [2-128] | ≥ 50 | – | – | – | –
Cc1cc(NC(=O)C2=C(O)CC(c3cnc(Cl)c(-c4ccc(F)nc4)c3)NC2=O)cnc1Cl (stereo not shown) [2-129] | ≥ 50 | – | – | – | –
Cc1cc(Cl)cnc1NC(=O)C1=C(O)CC(c2cnc(Cl)c(-c3ccc(F)nc3)c2)NC1=O (stereo not shown) [2-130] | ≥ 50 | – | – | – | –
O=C(Nc1ncc(Cl)nc1Cl)C1=C(O)CC(c2cnc(Cl)c(-c3ccc(F)nc3)c2)NC1=O (stereo not shown) [2-131] | ≥ 50 | – | – | – | –
O=C(Nc1ccc(Br)c(F)n1)C1=C(O)CC(c2cnc(Cl)c(-c3ccc(F)nc3)c2)NC1=O (stereo not shown) [2-132] | ≥ 50 | – | – | – | –
O=C(Nc1cnccn1)C1=C(O)CC(c2cnc(Cl)c(-c3ccc(F)nc3)c2)NC1=O (stereo not shown) [2-133] | ≥ 50 | – | – | – | –
Cc1ccnc(NC(=O)C2=C(O)CC(c3cnc(Cl)c(-c4ccc(F)nc4)c3)NC2=O)c1 (stereo not shown) [2-153] | ≥ 50 | – | – | – | –
O=C(Nc1ccc(F)cn1)C1=C(O)CC(c2cnc(C(F)(F)F)c(-c3ccc(F)nc3)c2)NC1=O (stereo not shown) [2-167] | ≥ 50 | – | – | – | –
O=C(Nc1ccc(Cl)cn1)C1=C(O)CC(c2cnc(C(F)(F)F)c(-c3ccc(F)nc3)c2)NC1=O (stereo not shown) [2-169] | ≥ 50 | – | – | – | –
O=C(Nc1ccc(F)cc1)C1=C(O)CC(c2nc(-c3ccncc3)no2)NC1=O (stereo not shown) [3-031] | – | ≥ 90 | ≥ 90 | ≥ 90 | ≥ 50
O=C(Nc1ccc(F)cc1)C1=C(O)CC(c2nc(-c3cc(F)cc(F)c3)no2)NC1=O (stereo not shown) [3-034] | – | ≥ 90 | ≥ 90 | ≥ 90 | ≥ 50
O=C(Nc1ccc(F)cn1)C1=C(O)CC(c2nc(-c3ccnc(F)c3)no2)NC1=O (stereo not shown) [3-036, N-(5-fluoropyridin-2-yl)-6-(3-(2-fluoropyridin-4-yl)-1,2,4-oxadiazol-5-yl)-4-hydroxy-2-oxo-1,2,5,6-tetrahydropyridine-3-carboxamide] | – | ≥ 90 | ≥ 90 | ≥ 90 | ≥ 50
O=C(Nc1cc(F)ccn1)C1=C(O)CC(c2nc(-c3cc(F)ccc3F)no2)NC1=O (stereo not shown) [3-050] | – | ≥ 90 | ≥ 90 | ≥ 90 | ≥ 50

SMILES | efficacy (%) [1] [%] | mortality at 500 µg/mL [2] [%] | mortality at 500 µg/mL [3] [%] | mortality at 500 µg/mL [4] [%] | mortality at 10 µg/cm2 [5] [%]
O=C(Nc1cc(F)ccn1)C1=C(O)CC(c2nc(-c3cccc(F)c3)no2)NC1=O (stereo not shown) [3-057] | – | ≥ 90 | ≥ 90 | ≥ 90 | ≥ 50
O=C(Nc1ccccn1)C1=C(O)CC(c2nc(-c3ccnc(F)c3)no2)NC1=O (stereo not shown) [3-065] | – | ≥ 90 | ≥ 90 | ≥ 90 | ≥ 50
N#Cc1ccc(NC(=O)C2=C(O)CC(c3nc(-c4ccnc(F)c4)no3)NC2=O)cc1 (stereo not shown) [3-071] | – | ≥ 90 | ≥ 90 | ≥ 90 | ≥ 50
O=C(Nc1cc(F)ccn1)C1=C(O)CC(c2nc(-c3ccc(F)c(Br)c3)no2)NC1=O (stereo not shown) [3-146] | – | ≥ 90 | ≥ 90 | ≥ 90 | ≥ 50
O=C(Nc1cc(Cl)ccn1)C1=C(O)CC(c2nc(-c3ccc(F)cc3F)no2)NC1=O (stereo not shown) [3-155] | – | ≥ 90 | ≥ 90 | ≥ 90 | ≥ 50
O=C(Nc1ccc(F)cc1F)C1=C(O)CC(c2nc(-c3ccc(F)cc3F)no2)NC1=O (stereo not shown) [3-157] | – | ≥ 90 | ≥ 90 | ≥ 90 | ≥ 50
O=C(Nc1ccc(F)c(F)c1)C1=C(O)CC(c2nc(-c3ccc(F)cc3F)no2)NC1=O (stereo not shown) [3-161] | – | ≥ 90 | ≥ 90 | ≥ 90 | ≥ 50
Cc1ccc(NC(=O)C2=C(O)CC(c3nc(-c4ccc(F)cc4F)no3)NC2=O)nc1 (stereo not shown) [3-175] | – | ≥ 90 | ≥ 90 | ≥ 90 | ≥ 50
Cc1ccnc(NC(=O)C2=C(O)CC(c3nc(-c4ccncc4C)no3)NC2=O)c1 (stereo not shown) [3-176] | – | ≥ 90 | ≥ 90 | ≥ 90 | ≥ 50
O=C(Nc1cccnc1)C1=C(O)CC(c2nc(-c3ccc(F)cc3F)no2)NC1=O (stereo not shown) [3-177] | – | ≥ 90 | ≥ 90 | ≥ 90 | ≥ 50
O=C(Nc1ccccn1)C1=C(O)CC(c2nc(-c3ccc(F)cc3)no2)NC1=O (stereo not shown) [3-184] | – | ≥ 90 | ≥ 90 | ≥ 90 | ≥ 50
O=C(Nc1ccccn1)C1=C(O)CC(c2nc(-c3cccc(F)c3)no2)NC1=O (stereo not shown) [3-185] | – | ≥ 90 | ≥ 90 | ≥ 90 | ≥ 50
O=C(Nc1cc(F)ccn1)C1=C(O)CC(c2nc(-c3ccns3)no2)NC1=O (stereo not shown) [3-227] | – | ≥ 90 | ≥ 90 | ≥ 90 | ≥ 50
O=C(Nc1ncccc1Br)C1=C(O)CC(c2nc(-c3cnccc3F)no2)NC1=O (stereo not shown) [3-233] | – | ≥ 90 | ≥ 90 | ≥ 90 | ≥ 50
O=C(Nc1cc(F)ccn1)C1=C(O)CC(c2nc(-c3cscc3Cl)no2)NC1=O (stereo not shown) [3-234] | – | ≥ 90 | ≥ 90 | ≥ 90 | ≥ 50
O=C(Nc1cc(F)ccn1)C1=C(O)CC(c2nc(-c3ccsc3Cl)no2)NC1=O (stereo not shown) [3-235] | – | ≥ 90 | ≥ 90 | ≥ 90 | ≥ 50
O=C(Nc1cccc(F)n1)C1=C(O)CC(c2nc(-c3ccncc3F)no2)NC1=O (stereo not shown) [3-238] | – | ≥ 90 | ≥ 90 | ≥ 90 | ≥ 50
O=C(Nc1cccc(F)n1)C1=C(O)CC(c2nc(-c3ccncc3Cl)no2)NC1=O (stereo not shown) [3-239] | – | ≥ 90 | ≥ 90 | ≥ 90 | ≥ 50
O=C(Nc1ccccn1)C1=C(O)CC(c2nc(-c3snc(Cl)c3Cl)no2)NC1=O (stereo not shown) [3-263] | – | ≥ 90 | ≥ 90 | ≥ 90 | ≥ 50
O=C(Nc1ccc(F)cn1)C1=C(O)CC(c2nc(-c3cnc(C(F)(F)F)s3)no2)NC1=O (stereo not shown) [3-264] | – | ≥ 90 | ≥ 90 | ≥ 90 | ≥ 50
